# Tests used:
# Mtb = conditions: at a concentration of 12.5 μg/mL; cited from earlier work
# [1] = tested on: TcdA production in C. difficile NAP1; assay: Toxin analysis: extracellular TcdA of C. difficile NAP1 at sub-MICs, western blot; format: cell-based, Clostridioides difficile; conditions: NAP1 challenged with 0.5×, 0.25×, 0.125× MIC, 48 h, TcdA normalized to total protein
# Protocol: After a 48 h incubation of NAP1 challenged with several dilutions of each compound, extracellular toxin in spent media derived from triplicate cultures was assessed with western blots using a monoclonal antibody against TcdA. Semi-quantitative analysis of toxin levels was performed via densitometry of TcdA band intensity with respect to total protein as measured by the Bradford assay. Semi-quantitative plots are shown below each representative blot. (a) Toxin production in BHIS (NAP1) and BHIS with 5% DMSO (vehicle). (b) Toxin production from cultures challenged with sub-MICs of fidaxomicin, (c) vancomycin, and (d-j) (+)-puupehenone and selected derivatives. Data points represent the means of adjusted toxin levels derived from triplicate cultures, while error bars represent standard deviations. Statistical analysis was performed in GraphPad Prism 8 using unpaired t-tests. *P<0.05; **P<0.01.
# To account for changes in biomass, a semi-quantitative analysis of TcdA production was performed by normalizing the target bands from representative western blots to the amount of total protein in each sample.
# Toxin analysis. Toxin production was determined by analyzing the amount of extracellular toxin in the cultures from the ASTs described above. At 48 h, total protein of each culture was determined with the Bradford assay using bovine serum albumin (BSA) as a standard.^53 Cultures were then centrifuged at 5,000×g for 5 minutes to clear the supernatants which were separately collected and frozen at −20° C. After thawing at room temperature, cell-free supernatants were mixed 1:1 with 2× Laemmli buffer and incubated in a sand bath at 100° C. for 5 minutes. Twenty microliters of denatured samples were loaded onto 7.5% Tris-glycine gels and electrophoresed at 200 V for 1 h. After electrophoresis, samples were transferred to polyvinylidene difluoride membranes at 4° C. overnight at 30 V. Membranes were incubated in a blocking buffer (20 mM Tris-HCl, 150 mM NaCl, 0.01 mM ethylenediaminetetraacetic acid, 0.1% Tween 20, 1% BSA, [pH 7.5]) for 1 h at room temperature. TcdA was detected with a monoclonal mouse anti-TcdA antibody (PCG4.1, Novus Biologicals) and a rabbit anti-mouse antibody conjugated with alkaline phosphatase. Blots were visualized with a ChemiDoc XRS+ imaging system (Bio-Rad).
# Semi-quantitative analysis of TcdA was performed using Image Lab 6.0 software (Bio-Rad). Briefly, after subtracting background noise, peaks corresponding to the target band were selected with the software's Lane Profile tool. The density of each peak generated a value (arbitrary units) that was normalized to the total protein amount of each respective sample. […] These losses of activity prevented us from performing statistical analysis from multiple experiments, as the sub-MICs were not always the same. Since there were no changes to the methodology described, several other reasons could have accounted for decreased activity, such as compound stability, freeze-thaw, and adherence to plastic. Nevertheless, the toxin results were reproducible, irrespective of the exact sub-MICs on different days.
# [2] = tested on: Enterococcus faecalis ATCC 29212; assay: MIC against E. faecalis, REMA; conditions: REMA, visual, 24 h
# [3] = tested on: Bacillus subtilis ATCC 23857; assay: MIC against B. subtilis, REMA; conditions: REMA, visual, 24 h
# [4] = tested on: replicating Mtb-lux (Mycobacterium tuberculosis CDC1551 with pMV306hsp+LuxG13); format: cell-based
# [5] = tested on: dormant Mtb-lux (Mycobacterium tuberculosis CDC1551 with pMV306hsp+LuxG13); format: cell-based; conditions: for R/D (MICR/MICD, Mtb-lux): ratio replicating MIC to dormant MIC
# [6] = tested on: Staphylococcus aureus ATCC 25923; assay: MIC against S. aureus, REMA; conditions: visual, 24 h
# [7] = tested on: Clostridioides difficile NAP1; assay: MIC against C. difficile NAP1, modified broth microdilution; conditions: for MIC C. difficile: NAP1, modified broth microdilution, 48 h, anaerobic
# dormant Mtb = conditions: earlier screen (ref 12); cited from earlier work
# active Mtb = conditions: earlier screen (ref 12); cited from earlier work
# [8] = tested on: M. smegmatis mc^2155 ATCC 700084; assay: MIC against M. smegmatis, REMA; format: cell-based, Mycobacterium smegmatis; conditions: Mycolicibacterium smegmatis, ATCC700084|MC^2155; determined visually by REMA assay, 24-hour incubation
# [9] = tested on: Mycobacterium tuberculosis H37Ra ATCC 25177; assay: MIC against Mtb H37Ra, resazurin microtiter assay (REMA); format: cell-based; conditions: Mycobacterium tuberculosis, 336 h, determined visually by REMA assay, 14-day incubation; read-out: MIC Mtb H37Ra
# [10] = tested on: J774A.1 (murine macrophage-like) cell line; assay: Cytotoxicity assay J774A.1; format: cell-based
# Protocol: (§1) To evaluate the selectivity of the top six compounds from the Mtb-lux activity screen (Table 2), cytotoxicity for two different mammalian cell lines was determined. The IC50 was calculated for each compound against J774A.1 and HepG2 cell lines. The selectivity index (SI) for both replicating and dormant conditions was then calculated by taking the IC50 and dividing it by the corresponding MIC (SIR=IC50/MICR, SID=IC50/MICD)^40. Consistent with the experience, the J774 macrophage cell line was more sensitive to all compounds tested. […] Based on these observations, this triacetate protected puupehenone represents a promising candidate for further optimization.
# (§2) Cytotoxicity assay: Cytotoxicity was assessed using J774A.1 (murine macrophage-like) and HepG2 (human liver carcinoma) cell lines using 2-fold dilution of the compounds as described previously^42, 43. IC50 values were determined using nonlinear regression fitting of the databy GraphPad Prism. The selectivity Index (SI) was calculated as IC50/MIC.
# [11] = Cytotoxicity assay J774A.1; format: cell-based, murine; conditions: mouse, J774A.1 macrophage-like cells; J774A.1 cells; read-out: Cytotoxicity (IC50) J774
# Protocol: as §1, §2
# [12] = tested on: HepG2 (human liver carcinoma) cell line; assay: Cytotoxicity assay HepG2
# Cytotoxicity assay HepG2 = conditions: human
SMILES,inhibition of Mtb (Mtb),Effect on TcdA toxin production [1],MICR (Mtb-lux) [4],MICD (Mtb-lux) [5],"R/D (MICR/MICD, Mtb-lux) [5]",MIC C. difficile [7],MIC in multistress dormancy model of Mtb (dormant Mtb),MIC against active Mtb (active Mtb),also measured
"CC1(C)CCC[C@]2(C)[C@H]3[C@H](C#N)c4cc(O)c(O)cc4O[C@@]3(C)CC[C@@H]12 [Compound 4, 15-α-cyanopuupehenol]",96%,–,–,–,–,–,–,–,–
CC1(C)CCCC2(C)C1CCC(C)(O)C2Cc1ccc(O)cc1 (stereo not shown) [Compound 34],–,decreased the amount of toxin in a similar concentration-dependent manner,114.3 µg/mL,30.9 µg/mL,3.7,16.0 µg/mL,–,–,MIC E. faecalis [2]: 15.8 µg/mL; MIC B. subtilis [3]: 7.9 µg/mL; MIC S. aureus [6]: 16.9 µg/mL
"CC1(C)CCC[C@]2(C)C3=CC4=CC(=O)C(=O)C=C4O[C@@]3(C)CC[C@@H]12 [Compound 2, Puupehedione]",–,–,–,–,–,–,15.4 µg/mL,87.6 µg/mL,–
CO[C@@H]1c2cc(OC(C)=O)c(OC(C)=O)cc2O[C@@]2(C)CC[C@H]3C(C)(C)CCC[C@]3(C)[C@@H]12 [Compound 15],–,decreased the amount of toxin in a similar concentration-dependent manner,8.9 µg/mL,1.7 µg/mL,5.2,4.0 µg/mL,–,–,"MIC [8]: 22.2 µg/mL; MIC [9]: 2.7 µg/mL; SI (SID) J774 [10]: 34.8; SI (SIR) J774 [10]: 6.6; IC50 [11]: 59.1 µM; SI (SID) HepG2 [12]: 62.9; SI (SIR) HepG2 [12]: 12.0; IC50 (Cytotoxicity assay HepG2): ~107 µM; MIC ([7]; Clostridioides difficile, NAP1, 48 h, read-out: MIC C. difficile, NAP1, modified broth microdilution, 48 h, anaerobic): 2 to 4 µg/mL"
"CO[C@@H]1c2cc(O)c(O)cc2O[C@@]2(C)CCC3C(C)(C)CCC[C@]3(C)[C@@H]12 (stereo partly drawn) [Compound 3, 15-α-methoxypuupehenol]",–,–,–,–,–,–,0.5 µg/mL,11.3 µg/mL,–
"CC1(C)CCC[C@]2(C)[C@H]3C(C#N)=C4C=C(O)C(=O)C=C4O[C@@]3(C)CC[C@@H]12 [Compound 5, 15-cyanopuupehenone]",90%,–,–,–,–,–,–,–,–
